According to patent publication US8785430B2, “Compound that can inhibit UBC13-UEV interactions, pharmaceutical compositions and therapeutic uses” (Consejo Superior de Investigaciones Cientificas, priority 2006, dated 2014):

System: S. cerevisiae Δrev3 mutants
Assay: Survival of S. cerevisiae Δrev3 mutants after ultraviolet radiation or MMS
Assay type: cell-based, Saccharomyces cerevisiae
Settings: 100 μM; UV or 0.03% MMS
Procedure: To determine if compounds Ia and Ib inhibit the function of Ubc13p-Mms2p, their capacity to mimic in S. cerevisiae the DNA repair phenotypes generated by the null mutation of ubc13 was evaluated. Thus, mutant strains in RAD6 or REV3 and the parent strain thereof (control) were used in viability assays after the exposure to ultraviolet radiation or MMS. The genotypes of the strains used are the following:
3) Strain Δrev3: MAT at his3Δ1 leu2Δ0 lys2Δ0 ura3Δ0 rev3::kanMX4
Cells were inoculated in liquid cultures with YPD medium overnight at 30° C., until reaching the log phase of growth. For the treatments with ultraviolet radiation, aliquots of cells, grown in the presence or absence of 100 μM of compounds Ia or Ib were irradiated in a Stratalinker instrument (Stratagene) at the energies indicated in FIGS. 7 and 8. For the treatment with the mutagenic agent MMS, aliquots of cells grown or not in medium with 100 μM of compounds Ia or Ib were incubated, 0.03% MMS being added, with subsequent incubation for the times indicated in FIGS. 7 and 8. After either treatment, 500 cells were seeded in plates with YPD medium, counting the colonies after 2 days.

NC(=O)CN(CCc1ccccn1)C(=O)C1CC(=O)N(CCc2ccc(F)cc2)CC(=O)N1CCc1ccc(F)cc1 (stereo not shown) [Ia, N-aminocarbamoylmethyl-N-(2′-(2″pyridyl)ethyl)-1,4-bis[2′-(4″-fluorophenyl)ethyl]-3,7-dioxo-[1,4]diazepane-5-carboxamide]
sensitization of Δrev3 cells to UV radiation or exposure to MMS: caused a higher sensitization of the cells
